Measured values: patent US11896423B2, “Time-varying quantification of capacitive and resistive arterial blood flow” (Board of Regents of the University of Nebraska, priority 2018, dated 2024)

Test system: renal sympathetic tone
Test: Renal pressure-flow measurements in anesthetized swine before and after renal sympatholysis with intrathecal ropivacaine
Assay type: in vivo, pigs
From the text: METHODS: Referring to FIG. 4, nine adult male New Zealand White rabbits were implanted with arterial pressure telemeters and bilateral renal flow probes. One kidney of each rabbit was surgically denervated. The rabbits were acclimated to a procedure room and, after a two-week recovery, measurements of arterial pressure and bilateral renal blood flow were obtained in the conscious state. Referring to FIG. 5, ten pigs were induced and then anesthesia was maintained via ketamine-midazolam IV infusion. T9/T10 intrathecal and arterial access were established. A Volcano ComboWire® was placed in the renal artery to measure intravascular pressure and flow velocity. Intrathecal ropivacaine was given to reduce renal sympathetic tone, and renal pressure-flow measurements were repeated.
Referring to FIG. 6, Arterial pressure and renal blood flow measurements were used to estimate resistive flow as a function of time, which was in turn used to derive the renal pressure-flow time-varying transfer function (TVTF). TVTF analysis focused on known sympathetic vaso-motor frequencies (0.2-0.75 Hz in rabbits, 0.03-0.1 Hz in pigs). Control of renal vascular resistance in different states of innervation was characterized by occurrence plots of admittance gain and phase shift of the TVTF. Admittance gain reflects the normalized magnitude of oscillations in renal blood flow; phase shift reflects the timing of renal blood flow oscillations relative to arterial pressure.
Table 2 (below) illustrates the mean hemodynamics of the pigs before (“Baseline”) and after renal sympatholysis with intrathecal ropivacaine (“Ropi”).

CCCN1CCCC[C@H]1C(=O)Nc1c(C)cccc1C [Ropi, ropivacaine]
Renal Blood Flow Velocity (mean hemodynamics of anesthetized pigs after renal sympatholysis with intrathecal ropivacaine (T9/T10), baseline 24 +/− 3): 28 ± 5 cm/s | Arterial Pressure (mean hemodynamics of anesthetized pigs after renal sympatholysis with intrathecal ropivacaine (T9/T10), baseline 83 +/− 4): 72 +/− 7 mmHg | Heart Rate (mean hemodynamics of anesthetized pigs after renal sympatholysis with intrathecal ropivacaine (T9/T10), baseline 85 +/− 8): 71 +/− 5 bpm | Phase asynchrony of the renal pressure-flow time-varying transfer function at known sympathetic vasomotor frequencies (pigs, state PRIOR to intrathecal ropivacaine compared with after (0.03-0.1 Hz)): more phase asynchrony
